For one series, the target named is T1, human LAG-3 protein (human, UniProt P18627, labeled with Red-NHS647 dye (in the MST assay)).
T1 sequence: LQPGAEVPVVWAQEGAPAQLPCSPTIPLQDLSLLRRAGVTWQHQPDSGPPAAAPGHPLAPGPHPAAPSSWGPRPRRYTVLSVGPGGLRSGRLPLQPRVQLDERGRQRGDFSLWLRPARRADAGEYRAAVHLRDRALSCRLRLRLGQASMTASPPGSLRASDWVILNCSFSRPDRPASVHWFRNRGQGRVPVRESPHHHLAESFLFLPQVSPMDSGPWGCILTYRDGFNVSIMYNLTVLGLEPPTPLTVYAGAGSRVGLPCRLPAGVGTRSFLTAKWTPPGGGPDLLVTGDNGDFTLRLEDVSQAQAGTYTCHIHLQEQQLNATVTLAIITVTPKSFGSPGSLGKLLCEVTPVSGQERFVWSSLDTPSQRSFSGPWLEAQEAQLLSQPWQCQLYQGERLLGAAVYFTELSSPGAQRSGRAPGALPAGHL
As to the kind of experiment: MST.

Bridge positions count the residues as written; N and C are the ends. Ends that are not written are not given here.

`CSCC[C@@H]1NC(=O)[C@@H]2CCCN2C(=O)[C@H](C(C)C)NC(=O)[C@@H](N)CSSC[C@@H](C(=O)O)NC(=O)[C@H](C)NC(=O)[C@H](CCCNC(=N)N)NC(=O)[C@H](Cc2ccc(O)cc2)NC(=O)[C@H]([C@@H](C)O)NC1=O` [C25]: the “immune response (immunogenicity) in mice” value (mice with or without CT26 xenograft) is on record as “did not cause significant immune response in mice”. In addition, under “naïve mice and CT26 tumor bearing mice after 14 days of C25 treatment, ELISA, versus control, n = 5”, the “IgG levels in the blood” value is reported as “not significantly different from those in the control group”.

On to CNWMINKEC (disulfide 1-9) [cyclic peptide C19], for which the equilibrium dissociation constant (Kd) with human LAG-3 protein turned out to be 5.05 µM.

In the series with human LAG-3 protein, CNMHTPMVC (disulfide 1-9) [cyclic peptide C17] returned a Kd of 1.83 µM.

Values taken from publication PMC7332792 (Acta Pharmaceutica Sinica. B, 2020).
